Here are results for seven compounds from paper PMC9007462 (Journal of Medicinal Chemistry, 2022).

The target in experiment [1] is T1, Human ALDH1A1 (Homo sapiens, UniProt P00352).
T1 construct: made in house
T1 sequence (P00352 1-501): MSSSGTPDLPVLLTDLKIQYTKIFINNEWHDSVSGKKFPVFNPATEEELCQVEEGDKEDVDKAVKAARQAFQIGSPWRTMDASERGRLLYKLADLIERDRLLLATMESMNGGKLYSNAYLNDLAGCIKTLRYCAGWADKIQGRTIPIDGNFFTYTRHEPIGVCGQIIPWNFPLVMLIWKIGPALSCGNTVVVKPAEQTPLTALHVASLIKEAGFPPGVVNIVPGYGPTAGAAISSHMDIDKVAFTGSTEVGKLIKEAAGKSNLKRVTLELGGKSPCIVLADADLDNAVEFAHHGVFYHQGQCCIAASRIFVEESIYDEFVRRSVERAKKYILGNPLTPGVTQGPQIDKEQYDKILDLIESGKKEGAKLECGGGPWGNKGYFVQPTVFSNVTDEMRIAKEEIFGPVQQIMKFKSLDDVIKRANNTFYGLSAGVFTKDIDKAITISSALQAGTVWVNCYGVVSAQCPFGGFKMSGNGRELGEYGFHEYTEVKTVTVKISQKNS
Description: Inhibition screening, single point at 10 μM, ALDH1A1. It is filed as biochemical. The settings on record: 10 μM compound; 5 μM hexanal (Figure S1). The protocol: (§1) Human ALDH1A1, ALDH1A3, and ALDH3A1 were cloned and recombinantly expressed from the pET-30 Xa/LIC vector. Protein purification was achieved by affinity chromatography on a nickel-charged chelating Sepharose Fast Flow 5-mL column (His Trap column, Cytiva), which specifically binds the protein due to its N-terminal (His)6 tag, using an ÄKTA FPLC system (Cytiva), as previously described.[55] Enzymes including the His tag were stored at −80 °C in 20 mM Tris/HCl and 0.5 M NaCl, pH 8.0, until use. Reaction buffers were as follows: ALDH1A1 was assayed in 50 mM HEPES, 0.5 mM EDTA, and 0.5 mM DTT, pH 8.0; ALDH1A3 was assayed in 50 mM HEPES, 30 mM MgCl2, and 5 mM DTT, pH 8.0; and ALDH3A1 was assayed in 50 mM Tris–HCl and 5 mM DTT, pH 8.0. Activity under standard conditions was measured fluorimetrically at 25 °C using a Cary Eclipse (Varian) fluorimeter to follow the purification procedure and to check the enzyme concentration before each kinetic experiment. The fluorescence of NADH was characterized at 460 nm with excitation at 340 nm, and 5 μM NAD(P)H was added as an internal standard to obtain the absolute reaction rates.[55] Standard activity was measured at saturating concentrations of substrate using 30 μM hexanal (ALDH1A1), 250 μM hexanal (ALDH1A3), or 250 μM 4-NBA (ALDH3A1). NAD^+ was 500 μM for ALDH1A1 and ALDH1A3, and NADP^+ was 1 mM for ALDH3A1.
All compounds tested were dissolved in DMSO and assayed at a final concentration of 1% (v/v) DMSO. […] For the initial screening, the enzymatic activity was measured in 96-well plates (final volume of 200 μL) in a Victor 3 Multilabel Plate Reader (Perkin Elmer), by monitoring the fluorescence of the NAD(P)H produced during the reaction (excitation at 340 nm and emission at 460 nm). Alternatively, the enzymatic activity was measured in a Varian Cary 400 UV–vis spectrophotometer, by monitoring the increase in the absorbance of NAD(P)H at 340 nm (ε = 6.22 mM^–1·cm^–1) or in a Cary Eclipse Varian fluorimeter, as described above. […] For ALDH1A1, 5 μM hexanal (Sigma) was used. For ALDH1A3, 10 and 250 μM hexanal (Sigma) were used. For ALDH3A1, 4-NBA (Sigma) was used at 31 and 250 μM. All substrates were prepared in the corresponding assay buffer at a concentration of 2 mM and further diluted to reach the final concentrations required per experiment. The concentration of the enzyme was kept from 50- to 100-fold lower than that of the substrate for all enzymatic assays.

The test system of another experiment is PC3. Description: MTT chemosensitivity assay, PC3. It is filed as cell-based, human. The settings on record: Homo sapiens, PC-3, 96 h exposure, ± SD, at least three independent experiments. As to the method: (§2) MTT (3-(4, 5-dimethyl-2-thiazolyl)-2, 5-diphenyl-2H-tetrazolium bromide) assay was used to determine cell viability.[64] Immortalized PCa cells (PC-3, Du-145, and LNCaP) were seeded in 96-well plates and allowed to adhere overnight at 37 °C, 5% CO2, and 100% humidity. […] After 96 h of exposure, 200 μL of MTT (Sigma) solution (0.5 mg/mL) was added to each well and incubated at 37 °C for 4 h. The formazan crystals were dissolved in DMSO (Sigma), and the absorbance was read using a microplate reader (Multiskan EX; Thermo Fisher Scientific) at 540 nm. Data analysis was performed using Microsoft Excel 2013 and GraphPad Prism software.
(In general: Tetrazolium dyes change colour on reduction, which living cells bring about.)

The test system of a further experiment is DU145. Put plainly: MTT chemosensitivity assay, DU145. The format is cell-based, human. The settings on record: Homo sapiens, DU-145, 96 h exposure, ± SD, at least three independent experiments. As to the method:
as §2

Another experiment has as its system LNCaP. Put plainly: MTT chemosensitivity assay, LNCaP. The settings on record: Homo sapiens, LNCaP, 96 h exposure, ± SD, at least three independent experiments. The format is cell-based, human. As to the method: as §2
In another experiment the target is T2, Human ALDH1A3 (Homo sapiens, UniProt P47895).
T2 construct: made in house
T2 sequence (P47895 1-512): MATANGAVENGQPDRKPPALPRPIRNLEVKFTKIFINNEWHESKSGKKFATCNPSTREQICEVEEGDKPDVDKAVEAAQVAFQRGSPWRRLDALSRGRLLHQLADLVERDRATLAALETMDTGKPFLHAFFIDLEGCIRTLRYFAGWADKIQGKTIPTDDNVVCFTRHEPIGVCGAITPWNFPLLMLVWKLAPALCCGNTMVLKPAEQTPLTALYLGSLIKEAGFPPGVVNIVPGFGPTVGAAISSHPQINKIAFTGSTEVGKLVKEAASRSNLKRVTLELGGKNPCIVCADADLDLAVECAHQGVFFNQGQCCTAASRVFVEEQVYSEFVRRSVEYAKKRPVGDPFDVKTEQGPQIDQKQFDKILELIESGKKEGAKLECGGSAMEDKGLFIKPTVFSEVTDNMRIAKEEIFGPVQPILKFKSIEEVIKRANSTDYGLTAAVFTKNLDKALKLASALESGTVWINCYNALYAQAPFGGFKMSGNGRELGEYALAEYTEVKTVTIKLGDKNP
Description: ALDH1A3 inhibition, IC50, Ki and type of inhibition. The format is biochemical. The settings on record: 6 μM hexanal as substrate; mean ± SE. As to the method:
Human ALDH1A1, ALDH1A3, and ALDH3A1 were cloned and recombinantly expressed from the pET-30 Xa/LIC vector. Protein purification was achieved by affinity chromatography on a nickel-charged chelating Sepharose Fast Flow 5-mL column (His Trap column, Cytiva), which specifically binds the protein due to its N-terminal (His)6 tag, using an ÄKTA FPLC system (Cytiva), as previously described.[55] Enzymes including the His tag were stored at −80 °C in 20 mM Tris/HCl and 0.5 M NaCl, pH 8.0, until use. Reaction buffers were as follows: ALDH1A1 was assayed in 50 mM HEPES, 0.5 mM EDTA, and 0.5 mM DTT, pH 8.0; […] Activity under standard conditions was measured fluorimetrically at 25 °C using a Cary Eclipse (Varian) fluorimeter to follow the purification procedure and to check the enzyme concentration before each kinetic experiment. […] In order to determine the IC50 values, reaction rates were determined at various concentrations of inhibitor at a fixed concentration of substrate. […] Values are expressed as the mean ± SE. […] The data of enzymatic activities at different inhibitor concentrations were fitted to the Michaelis–Menten equation to determine the values of Km and Vmax. Next, results were fitted to the equations for competitive, given by [drawing 3]; noncompetitive, given by [drawing 4]; uncompetitive, given by [drawing 5]; and mixed, given by [drawing 6] .[56] The type of inhibition was selected based on the lowest error value. Parameters were expressed as the mean ± SE.

Experiment [2] concerns the target T1, Human ALDH1A1. Put plainly: DEAB analogues as substrates of ALDH1A1. It is filed as biochemical. The settings on record: 10 μM compound as substrate, relative to activity with 10 μM hexanal (Figure S2). The protocol:
as §1
According to their structure with a carbonyl group, compounds were tested for their substrate properties against ALDH1A1, ALDH1A3, and ALDH3A1. […] Results are expressed as the percentage of activity at 10 μM versus the activity at 10 μM of their standard substrate (hexanal or 4-NBA). Values are expressed as the mean ± SE.

For another experiment, the target named is T3, Human ALDH3A1 (Homo sapiens, UniProt P30838).
T3 construct: made in house
T3 sequence (P30838 1-453): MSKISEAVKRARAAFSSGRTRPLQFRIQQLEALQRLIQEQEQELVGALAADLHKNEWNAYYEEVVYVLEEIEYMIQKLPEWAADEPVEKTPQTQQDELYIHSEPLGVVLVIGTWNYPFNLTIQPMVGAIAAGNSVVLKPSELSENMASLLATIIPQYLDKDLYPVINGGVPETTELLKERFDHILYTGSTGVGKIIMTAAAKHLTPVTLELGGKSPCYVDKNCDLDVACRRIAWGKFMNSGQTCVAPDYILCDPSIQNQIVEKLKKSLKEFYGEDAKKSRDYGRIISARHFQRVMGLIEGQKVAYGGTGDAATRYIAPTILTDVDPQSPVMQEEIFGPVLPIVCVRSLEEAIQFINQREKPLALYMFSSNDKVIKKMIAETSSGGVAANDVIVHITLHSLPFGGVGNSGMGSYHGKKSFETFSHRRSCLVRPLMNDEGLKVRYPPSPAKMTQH
Description: ALDH3A1 inhibition, IC50, Ki and type of inhibition. The format is biochemical. As to the method:
as §1
(§3) In order to determine the IC50 values, reaction rates were determined at various concentrations of inhibitor at a fixed concentration of substrate. As substrates for ALDH1A1, ALDH1A3, and ALDH3A1, 5 μM hexanal, 6 μM hexanal, and 31 μM 4-NBA, respectively, were used. The IC50 values were calculated by nonlinear fitting of the obtained data to a sigmoidal plot using GraFit 5.0 (Erithacus software), with the following 4-parameter equation [drawing 2] , where y is the specific activity, x is the inhibitor concentration, background is the minimum y value, range is the fitted uninhibited value minus the background, and s is the slope factor. Values are expressed as the mean ± SE.
Activity assays to determine the type of inhibition and Ki value were performed using various substrate and inhibitor concentrations maintaining the same conditions as for the IC50 experiments and using GraFit 5.0 for data processing. The data of enzymatic activities at different inhibitor concentrations were fitted to the Michaelis–Menten equation to determine the values of Km and Vmax. Next, results were fitted to the equations for competitive, given by [drawing 3]; noncompetitive, given by [drawing 4]; uncompetitive, given by [drawing 5]; and mixed, given by [drawing 6] .[56] The type of inhibition was selected based on the lowest error value. Parameters were expressed as the mean ± SE.

Experiment [3] deals with T1, Human ALDH1A1. Description: ALDH1A1 inhibition, IC50 determination. It is filed as biochemical. The settings on record: 5 μM hexanal as substrate; mean ± SE. As to the method: as §1, §3

The term IC50 denotes the concentration that gives 50% inhibition. On to `CCCN(CCC)c1ccc(C=O)cc1` [Compound 1, 4-(Dipropylamino)benzaldehyde], for which the “remaining ALDH1A1 activity” value on Human ALDH1A1 [1] turned out to be 12%. The IC50 in the experiment on PC3 is > 200 µM; in the experiment with DU145, 190 ± 25 µM; in the experiment on LNCaP, 73 ± 14 µM.

`O=Cc1ccc(N2CCCC2)cc1` [Compound 4, 4-(Pyrrolidin-1-yl)benzaldehyde]: the “remaining ALDH1A1 activity” value on Human ALDH1A1 [1] is reported as 10%.

Regarding `O=Cc1ccc(N2CCCC2)c(Cl)c1` [Compound 12, 3-Chloro-4-(pyrrolidin-1-yl)benzaldehyde], at Human ALDH1A3, the concentration for half-maximal inhibition (IC50) turned out to be 0.31 ± 0.03 µM. In addition, at Human ALDH1A1 [1], the “remaining ALDH1A1 activity” value worked out at 17%.

With `CCN(CC)c1ccc(C=O)cc1Br` [Compound 13, 3-Bromo-4-(diethylamino)benzaldehyde], the half-maximal inhibitory concentration (IC50) at Human ALDH1A3 is 10.7 ± 1.3 µM; in the experiment on PC3, 166 ± 41 µM; with DU145, 123 ± 12 µM; in the experiment with LNCaP it was 47 ± 0.6 µM. For the same compound, the “remaining ALDH1A1 activity” value on Human ALDH1A1 [1] is reported as 24%. Further, the ALDH1A1 substrate activity on Human ALDH1A1 [2] was ~60%.

The term Ki denotes a measure of affinity in units of concentration, obtained from inhibition or displacement. Take `CCN(CC)c1ccc(C=O)cc1[N+](=O)[O-]` [Compound 19, 4-(Diethylamino)-3-Nitrobenzaldehyde]: the ALDH1A1 substrate activity at Human ALDH1A1 [2] was determined as 69%. In addition, the half-maximal inhibitory concentration (IC50) in the experiment on PC3 is > 200 µM; with DU145 it was > 200 µM; on Human ALDH3A1 (31 μM 4-NBA as substrate, mean ± SE) it was 1.29 ± 0.15 µM; in the experiment with LNCaP, 136 ± 13 µM. Moreover, the “type of inhibition ALDH3A1” value at Human ALDH3A1 (4-NBA as substrate) is “competitive”. In addition, the Ki on Human ALDH3A1 (4-NBA as substrate, fit to competitive inhibition equation, mean ± SE) is 0.24 ± 0.04 µM.

`Cc1cc(C=O)ccc1N1CCCC1` [Compound 26, 3-Methyl-4-(pyrrolidin-1-yl)benzaldehyde]: the IC50 was 1.15 ± 0.15 µM on Human ALDH1A3; 0.8 ± 0.16 µM on Human ALDH1A1 [3]; > 200 µM with PC3; > 200 µM with DU145; 172 ± 8 µM in the experiment on LNCaP.

Turning to `COc1cc(C=O)ccc1N1CCCC1` [Compound 29, 3-Methoxy-4-(pyrrolidin-1-yl)benzaldehyde], the IC50 on Human ALDH1A3 is 4.86 ± 0.81 µM; at Human ALDH1A1 [3], 0.88 ± 0.05 µM.
